Data from ChEMBL document CHEMBL1131496, “Excitatory amino acid receptor ligands: resolution, absolute stereochemistry, and enantiopharmacology of 2-amino-3-(4-butyl-3-hydroxyisoxazol-5-yl)propionic acid” (J Med Chem, 1998).

Columns and labels:
[1] = molecular target: Glutamate receptor ionotropic, AMPA (Mus musculus, UniProt P23818+P23819+Q9Z2W8+Q9Z2W9)
Description: Compound was tested for in vitro binding affinity against Ionotropic glutamate receptor AMPA using [3H]AMPA ligand

Mus musculus [2] = experiment: In vivo convulsant activity were tested in mice after intravenous administration.
[3] = In vitro binding affinity against Metabotropic glutamate receptor using [3H](S)-glutamic acid; set-up: species or system Mus musculus
Rattus norvegicus = species: Rattus norvegicus; experiment: Compound was tested for electrophysiological experiments using rat cortical wedge preparation; type: functional
Mus musculus [4] = experiment: In vivo convulsant activity were tested in mice after subcutaneous administration.; type: functional; settings: sc

Row | Compound | IC50 [1] [µM] | ED50 (Mus musculus [2]) [µmol/kg] | IC50 [3] [µM] | EC50 (Rattus norvegicus) [µM] | ED50 (Mus musculus [4]) [µmol/kg]
1 | CCCCc1c(O)noc1CC(N)C(=O)O (stereo unspecified) | 1.8 | 94 | 0.63 | 37 | 110
2 | CCCCc1c(O)noc1C[C@@H](N)C(=O)O | > 1000 | > 350 | 0.57 | > 1000 | –
3 | CCCCc1c(O)noc1C[C@H](N)C(=O)O | 0.48 | 44 | 0.64 | 17 | –
4 | N[C@@H](Cc1onc(O)c1Br)C(=O)O | 0.34 | – | 0.22 | 21 | –
5 | N[C@H](Cc1onc(O)c1Br)C(=O)O | 32 | – | 0.15 | > 1000 | –
6 | NC(Cc1onc(O)c1Br)C(=O)O (stereo unspecified) | 0.6 | – | 0.2 | 23 | –
7 | Cc1onc(O)c1CC(N)C(=O)O [(R,S)-AMPA] | – | 55 | > 100 | – | –
8 | N[C@@H](Cn1oc(=O)[nH]c1=O)C(=O)O [QUISQUALATE] | – | – | 0.025 | 7.3 | –
